# Source: ChEMBL document CHEMBL1137093, “Synthesis, receptor binding and functional studies of mesoridazine stereoisomers” (Bioorg Med Chem Lett, 2004)
# Several values for one entry are separate records, joined by “and”; a condition that tells them apart may be missing. Equal values may be shown once.
# Key:
# [1] = target: T1, D(1A) dopamine receptor (Homo sapiens, UniProt P21728); test: Antagonism of D1 dopamine receptor of human was determined in C6D1 low-density cells by using cyclic AMP assay
# T1 sequence (P21728 whole entry): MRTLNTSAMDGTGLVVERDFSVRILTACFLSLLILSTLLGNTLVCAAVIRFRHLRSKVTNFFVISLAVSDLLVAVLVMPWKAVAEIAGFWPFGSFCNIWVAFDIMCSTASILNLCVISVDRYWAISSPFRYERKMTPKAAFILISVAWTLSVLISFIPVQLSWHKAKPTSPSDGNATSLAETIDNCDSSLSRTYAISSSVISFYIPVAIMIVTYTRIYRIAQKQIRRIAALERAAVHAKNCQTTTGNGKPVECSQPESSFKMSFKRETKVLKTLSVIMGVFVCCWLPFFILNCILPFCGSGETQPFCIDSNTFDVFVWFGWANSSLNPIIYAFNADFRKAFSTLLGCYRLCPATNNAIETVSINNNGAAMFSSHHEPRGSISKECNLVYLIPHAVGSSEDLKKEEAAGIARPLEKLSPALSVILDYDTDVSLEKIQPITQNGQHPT
# [2] = Antagonism was determined as concentration required to inhibit quinpirole-induced mitogenesis in CHOp cells
# [3] = target: T2, 5-hydroxytryptamine receptor 2A (Rattus norvegicus, UniProt P14842); test: Binding affinity towards rat 5-hydroxytryptamine 2A receptor was determined by using [3H]-ketanserin as radioligand
# T2 sequence (P14842 whole entry): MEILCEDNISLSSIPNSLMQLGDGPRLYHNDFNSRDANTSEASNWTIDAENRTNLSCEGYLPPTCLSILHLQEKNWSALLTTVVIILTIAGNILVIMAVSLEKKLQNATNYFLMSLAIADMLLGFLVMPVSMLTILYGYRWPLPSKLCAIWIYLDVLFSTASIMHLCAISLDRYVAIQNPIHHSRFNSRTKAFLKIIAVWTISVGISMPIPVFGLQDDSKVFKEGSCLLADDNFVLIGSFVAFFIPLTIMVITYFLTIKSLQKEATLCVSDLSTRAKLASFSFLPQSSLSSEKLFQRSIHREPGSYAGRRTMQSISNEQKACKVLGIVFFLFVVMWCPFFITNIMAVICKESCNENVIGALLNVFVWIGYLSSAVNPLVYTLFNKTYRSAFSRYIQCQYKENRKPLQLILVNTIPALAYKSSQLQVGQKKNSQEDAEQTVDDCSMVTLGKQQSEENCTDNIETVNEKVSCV
# [4] = target: T3, 5-hydroxytryptamine receptor 1A (Homo sapiens, UniProt P08908); test: Binding affinity towards human 5-hydroxytryptamine 1A receptor was determined by using [3H]8-OH-DPAT as radioligand
# T3 sequence (P08908 whole entry): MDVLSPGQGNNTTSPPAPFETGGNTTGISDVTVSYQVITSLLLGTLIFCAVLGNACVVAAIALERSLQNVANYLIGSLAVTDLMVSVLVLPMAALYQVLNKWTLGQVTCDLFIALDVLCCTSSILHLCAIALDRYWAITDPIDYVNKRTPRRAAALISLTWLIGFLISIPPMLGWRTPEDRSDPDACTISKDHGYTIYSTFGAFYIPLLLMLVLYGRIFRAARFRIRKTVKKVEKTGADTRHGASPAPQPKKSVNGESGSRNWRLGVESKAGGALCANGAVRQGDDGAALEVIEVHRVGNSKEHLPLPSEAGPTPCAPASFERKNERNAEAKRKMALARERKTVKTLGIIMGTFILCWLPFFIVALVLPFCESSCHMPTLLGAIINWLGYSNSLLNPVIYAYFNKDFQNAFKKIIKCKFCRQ
# [5] = target: T4, 5-hydroxytryptamine receptor 2C (Rattus norvegicus, UniProt P08909); test: Binding affinity towards rat 5-hydroxytryptamine 2C receptor was determined by using [3H]mesulergine as radioligand
# T4 sequence (P08909 whole entry): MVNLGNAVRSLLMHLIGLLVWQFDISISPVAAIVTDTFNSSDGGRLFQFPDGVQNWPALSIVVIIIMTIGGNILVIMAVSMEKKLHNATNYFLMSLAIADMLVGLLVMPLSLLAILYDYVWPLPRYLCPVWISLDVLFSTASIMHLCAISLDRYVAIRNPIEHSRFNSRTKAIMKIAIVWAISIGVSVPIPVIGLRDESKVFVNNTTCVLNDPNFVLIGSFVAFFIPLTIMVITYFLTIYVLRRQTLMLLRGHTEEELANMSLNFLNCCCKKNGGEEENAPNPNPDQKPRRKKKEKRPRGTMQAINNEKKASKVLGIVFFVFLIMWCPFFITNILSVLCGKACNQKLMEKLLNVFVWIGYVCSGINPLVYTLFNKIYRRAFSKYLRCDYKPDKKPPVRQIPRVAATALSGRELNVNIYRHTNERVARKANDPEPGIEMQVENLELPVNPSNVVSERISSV
# [6] = target: T1, D(1A) dopamine receptor
# Description: Binding affinity towards human D1 dopamine receptor was determined by using [3H]-SCH- 23390 as radioligand
# [7] = target: T5, D(2) dopamine receptor (Homo sapiens, UniProt P14416)
# T5 sequence (P14416 whole entry): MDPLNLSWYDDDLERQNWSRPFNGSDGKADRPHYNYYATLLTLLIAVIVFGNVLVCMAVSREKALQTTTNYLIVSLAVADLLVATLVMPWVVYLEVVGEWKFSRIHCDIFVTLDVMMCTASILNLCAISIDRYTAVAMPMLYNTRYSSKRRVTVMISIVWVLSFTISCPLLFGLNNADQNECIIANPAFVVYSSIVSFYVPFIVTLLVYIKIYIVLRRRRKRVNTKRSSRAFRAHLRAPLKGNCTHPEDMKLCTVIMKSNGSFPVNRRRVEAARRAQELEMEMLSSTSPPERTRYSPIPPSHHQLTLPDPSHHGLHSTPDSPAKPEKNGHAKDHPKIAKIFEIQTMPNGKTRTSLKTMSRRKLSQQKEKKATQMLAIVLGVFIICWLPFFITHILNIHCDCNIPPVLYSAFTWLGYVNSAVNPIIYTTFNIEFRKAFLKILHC
# Description: Binding affinity towards human D2 dopamine receptor was determined by using [3H]YM-09151-2 as radioligand
# [8] = target: D(3) dopamine receptor (Homo sapiens, UniProt P35462)
# Chain of D(3) dopamine receptor (P35462 whole entry): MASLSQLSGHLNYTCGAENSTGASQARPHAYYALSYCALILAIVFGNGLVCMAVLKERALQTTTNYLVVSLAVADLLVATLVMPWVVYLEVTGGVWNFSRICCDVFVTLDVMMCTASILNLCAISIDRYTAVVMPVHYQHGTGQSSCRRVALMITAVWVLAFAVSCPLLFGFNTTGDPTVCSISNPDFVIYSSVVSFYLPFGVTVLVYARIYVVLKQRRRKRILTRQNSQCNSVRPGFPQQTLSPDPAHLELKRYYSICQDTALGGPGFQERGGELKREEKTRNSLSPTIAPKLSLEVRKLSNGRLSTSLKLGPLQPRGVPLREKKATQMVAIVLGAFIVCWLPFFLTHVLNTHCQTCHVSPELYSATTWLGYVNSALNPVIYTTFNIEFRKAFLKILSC
# Description: Binding affinity towards human D3 dopamine receptor was determined by using [3H]YM-09151-2 as radioligand
# [9] = target: T2, 5-hydroxytryptamine receptor 2A; test: Antagonism of 5-hydroxytryptamine 2A receptor was determined using rat aortal strip contraction assay
# [10] = target: T5, D(2) dopamine receptor; remark: listed apart in the source
# [11] = target: T5, D(2) dopamine receptor; remark: listed apart in the source
# Description: High binding affinity towards human D2 dopamine receptor was determined by using [3H]YM-09151-2 as radioligand
# [12] = target: T5, D(2) dopamine receptor; remark: listed apart in the source
# Description: Concentration required to inhibit [3H]YM-09151-2 binding to human D2 dopamine receptor
# [13] = target: 5-hydroxytryptamine receptor 2A (Rattus norvegicus) (UniProt P14842)
# Chain of 5-hydroxytryptamine receptor 2A (Rattus norvegicus) (P14842 whole entry): as the sequence (P14842 whole entry) above
SMILES,IC50 [1] [nM],IC50 [2],Ki [3] [nM],Ki [4] [nM],Ki [5] [nM],Ki [6] [nM],Ki [7] [nM],Ki [8] [nM],Kb [9] [nM],Ki [10] [nM],Ki [11] [nM],IC50 [12] [nM],Ke [13] [nM]
"CN1CCCCC1CCN1c2ccccc2Sc2ccc([S+](C)[O-])cc21 (single isomer, unassigned; 2) [listing 1 of 2 here]",137,10 nM and 35 nM,55,105,412,103,–,23,6.31,1540,2.2,77,–
"CN1CCCCC1CCN1c2ccccc2Sc2ccc([S+](C)[O-])cc21 (single isomer, unassigned; 2) [listing 2 of 2 here]",–,–,–,–,–,–,–,–,–,–,–,–,7
"CN1CCCCC1CCN1c2ccccc2Sc2ccc([S+](C)[O-])cc21 (single isomer, unassigned; 3) [listing 1 of 2 here]",–,161 nM and 256 nM,112,349,704,1960,304,95,25.1,–,–,837,–

# More lines, now with the values ahead:
IC50 [1] [nM],IC50 [2],Ki [3] [nM],Ki [4] [nM],Ki [5] [nM],Ki [6] [nM],Ki [7] [nM],Ki [8] [nM],Kb [9] [nM],Ki [10] [nM],Ki [11] [nM],IC50 [12] [nM],Ke [13] [nM],SMILES
1250,232 nM and 408 nM,414,395,410,620,426,197,–,–,–,–,–,CN1CCCC[C@H]1CCN1c2ccccc2Sc2ccc([S@](C)=O)cc21
460,4 nM and 16 nM,19,64,112,317,–,26,2.51,1840,1.2,63,2.5,CN1CCCC[C@@H]1CCN1c2ccccc2Sc2ccc([S@@](C)=O)cc21
–,–,–,–,–,–,–,–,–,–,–,–,28,"CN1CCCCC1CCN1c2ccccc2Sc2ccc([S+](C)[O-])cc21 (single isomer, unassigned; 3) [listing 2 of 2 here]"
